Where two headings read alike, the source gives them in different places. Marks after values point to notes of the source that are not given here.
How the values were obtained:
VHL [1] = molecular target: T1, VHL (Homo sapiens, UniProt P40337); experiment: SPR binary binding of PROTAC to immobilized VHL; conditions: binary (PROTAC alone), 285.15 K
T1 construct: VHL (54-213); His6 with TEV cleavage site (N, cleaved yes); made in house; host or cells: E. coli BL21(DE3)

VHL + Brd2^BD1 [2] = molecular target: T2, VHL + Brd2^BD1 (Homo sapiens, UniProt P25440+P40337); experiment: SPR ternary binding of PROTAC:Brd2^BD1 complex to immobilized VHL
T2 construct: VHL (54-213); Brd2BD1 (71-194); His6 with TEV cleavage site (N, cleaved yes); made in house; host or cells: E. coli BL21(DE3) (VCB)

VHL + Brd3^BD1 [3] = molecular target: T3, VHL + Brd3^BD1 (Homo sapiens, UniProt P40337+Q15059); experiment: SPR ternary binding of PROTAC:Brd3^BD1 complex to immobilized VHL
T3 construct: VHL (54-213); Brd3BD1 (24-144); His6 with TEV cleavage site (N, cleaved yes); made in house; host or cells: E. coli BL21(DE3) (VCB)

VHL + Brd4^BD1 [4] = molecular target: T4, VHL + Brd4^BD1 (Homo sapiens, UniProt O60885+P40337); experiment: SPR ternary binding of PROTAC:Brd4^BD1 complex to immobilized VHL
T4 construct: VHL (54-213); Brd4BD1 (44-168); His6 with TEV cleavage site (N, cleaved yes); made in house; host or cells: E. coli BL21(DE3) (VCB)

VHL + Brd2^BD2 [5] = molecular target: T5, VHL + Brd2^BD2 (Homo sapiens, UniProt P25440+P40337); experiment: SPR ternary binding of PROTAC:Brd2^BD2 complex to immobilized VHL
T5 construct: VHL (54-213); Brd2BD2 (344-455); His6 with TEV cleavage site (N, cleaved yes); made in house; host or cells: E. coli BL21(DE3) (VCB)

VHL + Brd3^BD2 [6] = molecular target: T6, VHL + Brd3^BD2 (Homo sapiens, UniProt P40337+Q15059); experiment: SPR ternary binding of PROTAC:Brd3^BD2 complex to immobilized VHL
T6 construct: VHL (54-213); Brd3BD2 (306-416); His6 with TEV cleavage site (N, cleaved yes); made in house; host or cells: E. coli BL21(DE3) (VCB)

VHL + Brd4^BD2 [7] = molecular target: T7, VHL + Brd4^BD2 (Homo sapiens, UniProt O60885+P40337); experiment: SPR ternary binding of PROTAC:Brd4^BD2 complex to immobilized VHL; conditions: for α (cooperativity, KD^binary/KD^ternary) / ΔΔG (ΔG^ternary – ΔG^binary): SPR; for Kd / koff / kon / t1/2 (dissociative half-life, ln2/koff): ternary (+ Brd4^BD2), 298.15 K; for dissociation kinetics faster than the VHL/MZ1/Brd4^BD2 complex: ternary complex with Brd4^BD2
T7 construct: VHL (54-213); Brd4BD2 (333-460); His6 with TEV cleavage site (N, cleaved yes); made in house; host or cells: E. coli BL21(DE3) (VCB)

VHL + Brd2BD2G382E = molecular target: T8, VHL + Brd2BD2G382E (Homo sapiens, UniProt P25440+P40337, G382E); experiment: SPR ternary binding of PROTAC:Brd2^BD2 G382E point mutant complex to immobilized VHL
T8 construct: VHL (54-213); Brd2BD2 (344-455); His6 with TEV cleavage site (N, cleaved yes); made in house; host or cells: E. coli BL21(DE3) (VCB)

VHL + Brd3BD2E344G = molecular target: T9, VHL + Brd3BD2E344G (Homo sapiens, UniProt P40337+Q15059, E344G); experiment: SPR ternary binding of PROTAC:Brd3^BD2 E344G point mutant complex to immobilized VHL
T9 construct: VHL (54-213); Brd3BD2 (306-416); His6 with TEV cleavage site (N, cleaved yes); made in house; host or cells: E. coli BL21(DE3) (VCB)

VHL + Brd4BD2G386E = molecular target: T10, VHL + Brd4BD2G386E (Homo sapiens, UniProt O60885+P40337, G386E); experiment: SPR ternary binding of PROTAC:Brd4^BD2 G386E point mutant complex to immobilized VHL
T10 construct: VHL (54-213); Brd4BD2 (333-460); His6 with TEV cleavage site (N, cleaved yes); made in house; host or cells: E. coli BL21(DE3) (VCB)

VHL [8] = conditions: binary, ITC at 298.15 K, cited from earlier work
VHL + Brd4^BD2 [9] = conditions: cited from earlier work; for Kd: ternary + Brd4^BD2, ITC at 298.15 K; for ΔΔG (ITC) / α (ITC): ternary + Brd4^BD2, ITC
Brd4^BD2 = Brd4^BD2 (Homo sapiens, UniProt O60885); experiment: Reversed-format SPR, PROTAC binary binding to immobilized Brd4^BD2; conditions: qualitative, Figures S4 and S6
VHL + Brd2^BD1 [10] = system: VHL + Brd2^BD1; parameters: method as in PMID 28288108; conditions: ternary + Brd2^BD1, ITC, ref [2]; cited from earlier work
VHL + Brd3^BD1 [11] = system: VHL + Brd3^BD1; parameters: method as in PMID 28288108; conditions: ternary + Brd3^BD1, ITC, ref [2]; cited from earlier work
VHL + Brd4^BD1 [12] = system: VHL + Brd4^BD1; parameters: method as in PMID 28288108; conditions: ternary + Brd4^BD1, ITC, ref [2]; cited from earlier work
VHL + Brd2^BD2 [13] = system: VHL + Brd2^BD2; parameters: method as in PMID 28288108; conditions: ternary + Brd2^BD2, ITC, ref [2]; cited from earlier work
VHL + Brd3^BD2 [14] = system: VHL + Brd3^BD2; parameters: method as in PMID 28288108; conditions: ternary + Brd3^BD2, ITC, ref [2]; cited from earlier work
[15] = ternary + Brd4^BD2, kinetic fit
[16] = steady-state affinity fit (SSA)
[17] = ternary + Brd4^BD2, steady-state affinity fit (SSA)

Row | SMILES | Kd (VHL [1]; multicycle, kinetic fit) [nM] | α (cooperativity, KD^binary/KD^ternary) (VHL + Brd4^BD2 [7]; [15]) | Kd (VHL + Brd4^BD2 [7]; single-cycle, kinetic fit) [nM] | binary target affinity (for Brd4) (Brd4^BD2) | Kd (VHL [1]; [16]) [nM] | ΔΔG (ΔG^ternary – ΔG^binary) (VHL + Brd4^BD2 [7]; [15]) | ΔΔG (ΔG^ternary – ΔG^binary) (VHL + Brd4^BD2 [7]; [17]) | α (cooperativity, KD^binary/KD^ternary) (VHL + Brd4^BD2 [7]; [17]) | koff (VHL + Brd4^BD2 [7]; single-cycle, kinetic fit) [s⁻¹] | kon (VHL + Brd4^BD2 [7]; single-cycle, kinetic fit) [M^–1 s^–1 × 10^5] | t1/2 (dissociative half-life, ln2/koff) (VHL + Brd4^BD2 [7]; single-cycle, kinetic fit) [s] | Kd (VHL + Brd4^BD2 [7]; [16]) [nM] | dissociation kinetics faster than the VHL/MZ1/Brd4^BD2 complex (VHL + Brd4^BD2 [7]) [fold] | Kd (VHL [8]; ref [10]) [nM] | Kd (VHL + Brd4^BD2 [9]; ref [10]) [nM] | ΔΔG (ITC) (VHL + Brd4^BD2 [9]; ref [10]) | α (ITC) (VHL + Brd4^BD2 [9]; ref [10]) | other results
1 | CC(=O)N[C@H](C(=O)N1C[C@H](O)C[C@H]1C(=O)NCc1ccc(-c2scnc2C)cc1)C(C)(C)SCCCCCCNC(=O)C[C@@H]1N=C(c2ccc(Cl)cc2)c2c(sc(C)c2C)-n2c(C)nnc21 [AT1] | 110 | 4.7 | 24 | weaker | – | – | – | – | – | – | – | – | – | – | – | – | – | ΔΔG (ΔG^ternary – ΔG^binary) (VHL + Brd2^BD1 [2]): +0.9 kcal/mol; α (cooperativity, KD^binary/KD^ternary) (VHL + Brd2^BD1 [2]): 0.3; ΔΔG (ΔG^ternary – ΔG^binary) (VHL + Brd3^BD1 [3]): +0.2 kcal/mol; α (cooperativity, KD^binary/KD^ternary) (VHL + Brd3^BD1 [3]): 0.8; ΔΔG (ΔG^ternary – ΔG^binary) (VHL + Brd4^BD1 [4]): +1.1 kcal/mol; α (cooperativity, KD^binary/KD^ternary) (VHL + Brd4^BD1 [4]): 0.2; α (cooperativity, KD^binary/KD^ternary) (VHL + Brd2^BD2 [5]; SPR, ternary + Brd2^BD2): 4.1; Kd (VHL + Brd2^BD2 [5]; ternary (+ Brd2^BD2), 298.15 K, single-cycle, kinetic fit): 27 nM; ΔΔG (ΔG^ternary – ΔG^binary) (VHL + Brd3^BD2 [6]): +0.4 kcal/mol; α (cooperativity, KD^binary/KD^ternary) (VHL + Brd3^BD2 [6]): 0.7; ΔΔG (ΔG^ternary – ΔG^binary) (VHL + Brd2BD2G382E): +0.3 kcal/mol; α (cooperativity, KD^binary/KD^ternary) (VHL + Brd2BD2G382E): 0.7; α (cooperativity, KD^binary/KD^ternary) (VHL + Brd3BD2E344G): 3.4; ΔΔG (ΔG^ternary – ΔG^binary) (VHL + Brd4BD2G386E): +0.2 kcal/mol; α (cooperativity, KD^binary/KD^ternary) (VHL + Brd4BD2G386E): 0.8; Kd (VHL [8]; ref [2]): 335 nM; Kd (VHL + Brd4^BD2 [9]; ref [2]): 46 nM
2 | Cc1ncsc1-c1ccc(CNC(=O)[C@@H]2C[C@@H](O)CN2C(=O)[C@@H](NC(=O)COCCOCCOCCNC(=O)C[C@@H]2N=C(c3ccc(Cl)cc3)c3c(sc(C)c3C)-n3c(C)nnc32)C(C)(C)C)cc1 [MZ1] | – | – | – | – | – | – | – | – | – | – | – | – | – | – | – | – | – | ΔΔG (ITC) (VHL + Brd2^BD1 [10]): –0.6 ^d kcal/mol; α (ITC) (VHL + Brd2^BD1 [10]): 2.9 ^d; ΔΔG (ITC) (VHL + Brd3^BD1 [11]): –0.8 ^d kcal/mol; α (ITC) (VHL + Brd3^BD1 [11]): 3.5 ^d; ΔΔG (ITC) (VHL + Brd4^BD1 [12]): –0.5 ^d kcal/mol; α (ITC) (VHL + Brd4^BD1 [12]): 2.3 ^d; ΔΔG (ITC) (VHL + Brd2^BD2 [13]): –0.5 ^d kcal/mol; α (ITC) (VHL + Brd2^BD2 [13]): 2.3 ^d; ΔΔG (ITC) (VHL + Brd3^BD2 [14]): –1.5 ^d kcal/mol; α (ITC) (VHL + Brd3^BD2 [14]): 10.7 ^d
3 | CC(=O)N1c2ccc(-c3ccc(C(=O)NCCOCCOCCOCCOCC(=O)N[C@H](C(=O)N4C[C@H](O)C[C@H]4C(=O)NCc4ccc(-c5scnc5C)cc4)C(C)(C)C)cc3)cc2[C@H](Nc2ccc(Cl)cc2)C[C@@H]1C [MZP55] | 69 | 0.4 | 185 | high | 188 | +0.7 kcal/mol | +0.5 kcal/mol | 0.5 | 0.47 | 27 | 1 | 134 | > 80 | 109 | 183 | +0.3 ^e kcal/mol | 0.6 ^e | koff (VHL [1]; multicycle, kinetic fit): 0.015 s⁻¹; kon (VHL [1]; multicycle, kinetic fit): 2.7 M^–1 s^–1 × 10^5; t1/2 (dissociative half-life, ln2/koff) (VHL [1]; multicycle, kinetic fit): 48 s; ΔΔG (ITC) (VHL + Brd4^BD2 [9]; ref [10], listed as MZP 55): +0.3 kcal/mol; α (ITC) (VHL + Brd4^BD2 [9]; ref [10], listed as MZP 55): 0.6
4 | CC(=O)N1c2ccc(-c3ccc(C(=O)NCCOCCOCC(=O)N[C@H](C(=O)N4C[C@H](O)C[C@H]4C(=O)NCc4ccc(-c5scnc5C)cc4)C(C)(C)C)cc3)cc2[C@H](Nc2ccc(Cl)cc2)C[C@@H]1C [MZP61] | – | 0.2 | 465 | high | 104 | +1.0 kcal/mol | +0.6 kcal/mol | 0.4 | 1 | 30 | 1 | 248 | > 80 | 116 | 781 | +1.1 ^e kcal/mol | 0.1 ^e | ΔΔG (ITC) (VHL + Brd4^BD2 [9]; ref [10], listed as MZP 61): +1.1 kcal/mol

From paper PMC6423499, “SPR-Measured Dissociation Kinetics of PROTAC Ternary Complexes Influence Target Degradation Rate” (ACS Chemical Biology, 2019)
